Experimental data as given in patent publication US20090181898A1, “ABUSE-RESISTANT A[…]” (SHIRE LLC, priority 2002, published 2009).
Where a name gives a salt, the structure may show the parent alone.

What was measured:
[1] = Oral bioavailability of peptide amphetamine conjugates (HCl salts, ELISA); details: rats
[2] = Intranasal bioavailability of peptide amphetamine conjugates (HCl salts, ELISA); details: for Percent AUC (bioavailability relative to Amphetamine) / Percent Cmax (relative to Amphetamine): Intranasal, rats
[3] = Kitchen tests: water, acid (vinegar), base (baking powder, baking soda), boiling; type: physicochemical; details: for free amphetamine released: heated to boiling for 20-60 minutes
Method: “Kitchen tests” were performed in anticipation of attempts by illicit chemists to release free amphetamine from the amphetamine conjugate.

[4] = Intravenous bioavailability of peptide amphetamine conjugates (HCl salts, ELISA); details: rats
[5] = Oral bioavailability at escalating doses (LC/MS/MS); details: rat, oral
rats [6] = details: cited from earlier work
rats [7] = assay: Single oral dose toxicity; type: in vivo, Sprague Dawley rats; details: rat, single oral dose
Method: Three male and three female Sprague Dawley rats per group were given a single oral administration of L-lysine-d-amphetamine at 0.1, 1.0, 10, 60, 100, or 1000 mg/kg (Table 53).
Animals found dead, or sacrificed moribund were necropsied and discarded.

children with ADHD = assay: Pediatric efficacy trial, ADHD-RS and CPRS, parallel-group, four weeks; details: children 6-12, 30, 50 or 70 mg once daily
[8] = tested on: enzyme cocktails (pepsin, pancreatin, pronase, esterase, Omnigest, VitälZym); assay: Stability under treatment with commercially available enzyme cocktails; type: in vitro ADME; details: 37° C.
Method: For acids and bases (Table 59), 10 mg of Lys-Amp was mixed with 2 mL of each stock solution, and the solution was shaken at 20° C. For enzyme treatment (Table 60), 10 mg Lys-Amp was mixed with 5 mL of each enzyme cocktail, and the solution was shaken at 37° C. […] Many of the commercially available reagents also contained various solvents and/or surfactants.
Unless otherwise indicated, solutions were used directly from the container and were combined with neat Lys-Amp solid. Lewis Red Devil® Lye, Enforcer Drain Care® Septic Treatment, and Rid-X® Septic Treatment were prepared as saturated solutions in H2O. Enzymes used were purchased from Sigma and directly dissolved in water (3 mg/mL pepsin, 10 mg/mL pancreatin, 3 mg/mL pronase, 3 mg/mL esterase), while enzyme-containing nutraceuticals such as Omnigest® and VitälZym® were first either crushed or opened (1 tablet or capsule per 5 mL of H2O).

[9] = Stability under basic conditions

Molecule: [2H]OC(=O)CC[C@H](N)C(=O)NC(C)Cc1ccccc1 (some centres unmarked) [E-Amp]
- Percent AUC (bioavailability relative to Amphetamine) [1]: 73%
- Percent Cmax (relative to Amphetamine) [1]: 95%

Molecule: [2H]OC(=O)CC[C@H](NC(=O)[C@@H](N)CCC(=O)O)C(=O)NC(C)Cc1ccccc1 (some centres unmarked) [EE-Amp]
- Percent AUC (bioavailability relative to Amphetamine) [1]: 26%
- Percent Cmax (relative to Amphetamine) [1]: 74%

Molecule: [2H]OC(=O)CC[C@H](NC(=O)[C@H](CCC(=O)O)NC(=O)[C@@H](N)CCC(=O)O)C(=O)NC(C)Cc1ccccc1 (some centres unmarked) [EEE-Amp]
- Percent AUC (bioavailability relative to Amphetamine) [1]: 69%
- Percent Cmax (relative to Amphetamine) [1]: 53%
- Percent AUC (bioavailability relative to Amphetamine) [2]: 10%
- Percent Cmax (relative to Amphetamine) [2]: 10%

Molecule: [2H]N(C(=O)[C@H](CCC(=O)O)NC(=O)[C@@H](N)CCC(=O)O)[C@@H](Cc1ccccc1)C(=O)NC(C)Cc1ccccc1 (some centres unmarked) [EEF-Amp]
- Percent AUC (bioavailability relative to Amphetamine) [1]: 42%
- Percent Cmax (relative to Amphetamine) [1]: 73%
- Percent AUC (bioavailability relative to Amphetamine) [2]: 39%
- Percent Cmax (relative to Amphetamine) [2]: 29%

Molecule: [2H]N(C(=O)[C@@H](N)Cc1ccccc1)[C@@H](Cc1ccccc1)C(=O)NC(C)Cc1ccccc1 (some centres unmarked) [FF-Amp]
- Percent AUC (bioavailability relative to Amphetamine) [1]: 27%
- Percent Cmax (relative to Amphetamine) [1]: 64%

Molecule: CC(Cc1ccccc1)NC(=O)CN (centres unmarked) [G-Amp]
- Percent AUC (bioavailability relative to Amphetamine) [1]: 81%
- Percent Cmax (relative to Amphetamine) [1]: 78%
- Percent AUC (bioavailability relative to Amphetamine) [2]: 65%
- Percent Cmax (relative to Amphetamine) [2]: 53%

Molecule: [2H]N(CC(=O)NC(C)Cc1ccccc1)C(=O)CN (centres unmarked) [GG-Amp]
- Percent AUC (bioavailability relative to Amphetamine) [1]: 79%
- Percent Cmax (relative to Amphetamine) [1]: 88%
- Percent AUC (bioavailability relative to Amphetamine) [2]: 88%
- Percent Cmax (relative to Amphetamine) [2]: 85%

Molecule: CC(Cc1ccccc1)NC(=O)CNC(=O)CNC(=O)CN (centres unmarked) [Gly3-Amp, 2-amino-N-({[(1-methyl-2-phenyl-ethylcarbornyl)-methyl]-carbornyl}-methyl)-acetamide]
- free amphetamine released ([3]; Baking Powder): 0%
- free amphetamine released ([3]; Baking Soda): 0%
- free amphetamine released ([3]; Tap Water): 0%
- free amphetamine released ([3]; Vinegar): 0%
- Release of free amphetamine in kitchen tests ([3]; water, vinegar, baking powder, baking soda, boiling 20-60 minutes): no detectable free amphetamine

Molecule: CC(Cc1ccccc1)NC(=O)C(O)C(O)C(O)C(O)CO (centres unmarked) [Gulonate-Amp]
- Percent AUC (bioavailability relative to Amphetamine) [1]: 1%
- Percent Cmax (relative to Amphetamine) [1]: 1%
- Percent AUC (bioavailability relative to Amphetamine) [2]: 0.4%
- Percent Cmax (relative to Amphetamine) [2]: 0.5%
- Percent AUC (bioavailability relative to Amphetamine) [4]: 3%
- Percent Cmax (relative to Amphetamine) [4]: 5%

Molecule: [2H]N[C@@H](Cc1c[nH]cn1)C(=O)NC(C)Cc1ccccc1 (some centres unmarked) [H-Amp]
- Percent AUC (bioavailability relative to Amphetamine) [1]: 16%
- Percent Cmax (relative to Amphetamine) [1]: 21%
- Percent AUC (bioavailability relative to Amphetamine) [2]: 22%
- Percent Cmax (relative to Amphetamine) [2]: 42%

Molecule: [2H]N[C@H](C(=O)NC(C)Cc1ccccc1)[C@@H](C)CC (some centres unmarked) [I-Amp]
- Percent AUC (bioavailability relative to Amphetamine) [1]: 71%
- Percent Cmax (relative to Amphetamine) [1]: 52%
- Percent AUC (bioavailability relative to Amphetamine) [2]: 73%
- Percent Cmax (relative to Amphetamine) [2]: 97%

Molecule: [2H]N(CC(=O)NC(C)Cc1ccccc1)C(=O)[C@@H](N)CCCCN (some centres unmarked) [KG-Amp]
- Percent AUC (bioavailability relative to Amphetamine) [1]: 69%
- Percent Cmax (relative to Amphetamine) [1]: 71%
- Percent AUC (bioavailability relative to Amphetamine) [2]: 13%
- Percent Cmax (relative to Amphetamine) [2]: 12%

Molecule: [2H]N[C@@H](CC(C)C)C(=O)NC(C)Cc1ccccc1 (stereo partly drawn) [L-Amp]
- Percent AUC (bioavailability relative to Amphetamine) [1]: 65%
- Percent Cmax (relative to Amphetamine) [1]: 81%

Molecule: [2H]OC(=O)CC[C@H](NC(=O)[C@@H](N)CC(C)C)C(=O)NC(C)Cc1ccccc1 (some centres unmarked) [LE-Amp]
- Percent AUC (bioavailability relative to Amphetamine) [1]: 40%
- Percent Cmax (relative to Amphetamine) [1]: 28%
- Percent AUC (bioavailability relative to Amphetamine) [2]: 6%
- Percent Cmax (relative to Amphetamine) [2]: 6%

Molecule: [2H]N1CCC[C@H]1C(=O)NC(C)Cc1ccccc1 (some centres unmarked) [P-Amp]
- Percent AUC (bioavailability relative to Amphetamine) [1]: 6%
- Percent Cmax (relative to Amphetamine) [1]: 3%
- Percent AUC (bioavailability relative to Amphetamine) [2]: 2%
- Percent Cmax (relative to Amphetamine) [2]: 2%

Molecule: CC(Cc1ccccc1)NC(=O)C1CCCN1C(=O)C1CCCN1 (centres unmarked) [PP-Amp]
- Percent AUC (bioavailability relative to Amphetamine) [1]: 61%
- Percent Cmax (relative to Amphetamine) [1]: 80%
- Percent AUC (bioavailability relative to Amphetamine) [2]: 47%
- Percent Cmax (relative to Amphetamine) [2]: 43%

Molecule: CC(Cc1ccccc1)NC(=O)C(N)Cc1ccccc1 (centres unmarked) [Phe-Amp, 2-amino-3-phenylpropanoic acid-(1-methyl-2-phenylethyl)-amide]
- Bioavailability by parenteral routes of administration ([2]; rat, parenteral routes): little or no decrease

Molecule: [2H]N[C@@H](Cc1ccc(O)cc1)C(=O)NC(C)Cc1ccccc1 (some centres unmarked) [Y-Amp]
- Percent AUC (bioavailability relative to Amphetamine) [1]: 25%
- Percent Cmax (relative to Amphetamine) [1]: 20%
- Percent AUC (bioavailability relative to Amphetamine) [2]: 21%
- Percent Cmax (relative to Amphetamine) [2]: 20%

Molecule: C[C@H](N)Cc1ccccc1 [d-amphetamine sulfate]
- F of d-amphetamine ([5]; 12 mg/kg): 101%
- F of d-amphetamine ([5]; 60 mg/kg): 223%
- Oral LD50 (rats [6]): 96.8 mg/kg

Molecule: L-lysine-d-amphetamine diHCl
- Observable signs of toxicity, Groups 4-6 (rats [7]): increased motor activity within two hours post-dose
- Observable signs of toxicity, Groups 1-3 (rats [7]; Days 1-7): no observable signs

Molecule: L-lysine-d-amphetamine dimesylate
- Signs and symptoms of ADHD (ADHD-RS, CPRS) compared to placebo (children with ADHD): Significant improvements
- d-amphetamine released ([8]; Cellfood ®, 1 h): 0 w.t. % d-amphetamine
- d-amphetamine released ([8]; Cellfood ®, 24 h): 0 w.t. % d-amphetamine
- d-amphetamine released ([8]; Drano ® Max with Bacteria, 1 h): 0 w.t. % d-amphetamine
- d-amphetamine released ([8]; Drano ® Max with Bacteria, 24 h): 0 w.t. % d-amphetamine
- d-amphetamine released ([8]; Enforcer ® Septic, 1 h): 0 w.t. % d-amphetamine
- d-amphetamine released ([8]; Enforcer ® Septic, 24 h): 0 w.t. % d-amphetamine
- d-amphetamine released ([8]; Esterase 3 mg/mL, 1 h): 0 w.t. % d-amphetamine
- d-amphetamine released ([8]; Esterase 3 mg/mL, 24 h): 19 w.t. % d-amphetamine
- d-amphetamine released ([8]; Omnigest ®, 1 h): 0 w.t. % d-amphetamine
- d-amphetamine released ([8]; Omnigest ®, 24 h): 0 w.t. % d-amphetamine
- d-amphetamine released ([8]; Pancreatin 10 mg/mL, 1 h): 0 w.t. % d-amphetamine
- d-amphetamine released ([8]; Pancreatin 10 mg/mL, 24 h): 0 w.t. % d-amphetamine
- d-amphetamine released ([8]; Pepsin 3 mg/mL, 1 h): 0 w.t. % d-amphetamine
- d-amphetamine released ([8]; Pepsin 3 mg/mL, 24 h): 0 w.t. % d-amphetamine
- d-amphetamine released ([8]; Pronase 3 mg/mL, 1 h): 0 w.t. % d-amphetamine
- d-amphetamine released ([8]; Pronase 3 mg/mL, 24 h): 24 w.t. % d-amphetamine
- d-amphetamine released ([8]; Rid-X ® Septic, 1 h): 0 w.t. % d-amphetamine
- d-amphetamine released ([8]; Rid-X ® Septic, 24 h): 0 w.t. % d-amphetamine
- d-amphetamine released ([8]; VitälZym ®, 1 h): 0 w.t. % d-amphetamine
- d-amphetamine released ([8]; VitälZym ®, 24 h): 0 w.t. % d-amphetamine
- Maximum d-amphetamine release ([9]; 3M sodium hydroxide): 25.4%
- d-amphetamine release ([9]; all other basic conditions): less than 3%
